≈ marks a conversion by molar mass, not a printed value. Read-outs that look alike come from different tables or passages of the source.
Tests used:
[1] = test system: methicillin-sensitive Staphylococcus aureus; experiment: MIC by broth micro-dilution (CLSI), methicillin-sensitive S. aureus; assay type: cell-based; conditions: MSSA S. aureus ATCC29213
[2] = test system: carbapenem sensitive Pseudomonas aeruginosa; experiment: MIC by broth micro-dilution (CLSI), carbapenem sensitive P. aeruginosa; assay type: cell-based
[3] = test system: carbapenemase producing K. pneumoniae; experiment: MIC by broth micro-dilution (CLSI), carbapenemase producing K. pneumoniae; assay type: cell-based, Klebsiella pneumoniae
[4] = test system: carbapenem sensitive Escherichia coli; experiment: MIC by broth micro-dilution (CLSI), carbapenem sensitive E. coli; assay type: cell-based
[5] = Staphylococcus aureus, ATCC 29213 / MSSA, read-out: MIC
[6] = Pseudomonas aeruginosa, ATCC27853, Meropenem susceptible P. aeruginosa ATCC27853, read-out: MIC
[7] = Klebsiella pneumoniae, ATCCBAA1705, KPC-2 K. pneumoniae ATCC BAA-1705, read-out: MIC
[8] = Escherichia coli, ATCC25922, ESBL −ve E. coli ATCC25922, read-out: MIC
[9] = Meropenem susceptible P. aeruginosa ATCC27853
[10] = KPC-2 K. pneumoniae ATCC BAA-1705

| Structure (SMILES) | MIC [1, 5] [µg/mL] | MIC [2, 6] [µg/mL] | MIC [3, 7] [µg/mL] | MIC [4, 8] [µg/mL] | MIC [1] [µg/mL] | MIC [2, 9] [µg/mL] | MIC [3, 10] [µg/mL] | MIC ([4]; ESBL −ve E. coli ATCC25922) [µg/mL] |
| --- | --- | --- | --- | --- | --- | --- | --- | --- |
| C[C@@H](NC(=O)Cn1cnnn1)[C@H]1C(=O)N2C(C(=O)O)=C(S[C@@H]3CN[C@H](C(=O)N4CCC(N)C(F)C4)C3)[C@H](C)[C@H]12 (single isomer, unassigned) [Example 425] | 4 (≈ 7.07 µM) | 2 (≈ 3.54 µM) | 2 (≈ 3.54 µM) | 0.25 (≈ 0.442 µM) |  |  |  |  |
| C[C@@H](NC(=O)Cn1cnnn1)[C@H]1C(=O)N2C(C(=O)O)=C(S[C@@H]3CN[C@H](C(=O)N4CCC5CNCCC54)C3)[C@H](C)[C@H]12 (single isomer, unassigned) [Example 438] | 2 (≈ 3.49 µM) | 2 (≈ 3.49 µM) | 1 (≈ 1.74 µM) | 0.25 (≈ 0.436 µM) |  |  |  |  |
| C[C@@H](NC(=O)Cn1cnnn1)[C@H]1C(=O)N2C(C(=O)O)=C(S[C@@H]3CN[C@H](C(=O)N4CC5CCCNC5C4)C3)[C@H](C)[C@H]12 (single isomer, unassigned) [Example 452] | 2 (≈ 3.49 µM) | 2 (≈ 3.49 µM) | 1 (≈ 1.74 µM) | 0.25 (≈ 0.436 µM) |  |  |  |  |
| C[C@@H](NC(=O)Cn1cnnn1)[C@H]1C(=O)N2C(C(=O)O)=C(S[C@@H]3CN[C@H](C(=O)N4CC5CCCNC5C4)C3)[C@H](C)[C@H]12 (single isomer, unassigned) [Example 459] |  |  |  |  | 1 (≈ 1.74 µM) | 2 (≈ 3.49 µM) | 1 (≈ 1.74 µM) | 0.125 (≈ 0.218 µM) |
| C[C@@H](NC(=O)Cn1cnnn1)[C@H]1C(=O)N2C(C(=O)O)=C(S[C@@H]3CN[C@H](C(=O)N4CCC5CNCC54)C3)[C@H](C)[C@H]12 (single isomer, unassigned) [Example 466] | 4 (≈ 7.15 µM) | 4 (≈ 7.15 µM) | 2 (≈ 3.57 µM) | 0.5 (≈ 0.893 µM) |  |  |  |  |
| C[C@@H](NC(=O)Cn1cnnn1)[C@H]1C(=O)N2C(C(=O)O)=C(S[C@@H]3CN[C@H](C(=O)N4CCC5CNCC54)C3)[C@H](C)[C@H]12 (single isomer, unassigned) [Example 467] |  |  |  |  | 8 (≈ 14.3 µM) | 8 (≈ 14.3 µM) | 2 (≈ 3.57 µM) | 1 (≈ 1.79 µM) |
| C[C@@H](NC(=O)Cn1cnnn1)[C@H]1C(=O)N2C(C(=O)O)=C(S[C@@H]3CN[C@H](C(=O)N4CCC5NCCCC54)C3)[C@H](C)[C@H]12 (single isomer, unassigned) [Example 468] | 4 (≈ 6.97 µM) | 8 (≈ 13.9 µM) | 2 (≈ 3.49 µM) | 0.5 (≈ 0.872 µM) |  |  |  |  |
| C[C@@H](NC(=O)Cn1cnnn1)[C@H]1C(=O)N2C(C(=O)O)=C(S[C@@H]3CN[C@H](C(=O)N4CCC5NCCCC54)C3)[C@H](C)[C@H]12 (single isomer, unassigned) [Example 469] |  |  |  |  | 4 (≈ 6.97 µM) | 4 (≈ 6.97 µM) | 2 (≈ 3.49 µM) | 0.5 (≈ 0.872 µM) |
| C[C@@H](NC(=O)Cn1cnnn1)[C@H]1C(=O)N2C(C(=O)O)=C(S[C@@H]3CN[C@H](C(=O)N4CC(N)C(F)C4)C3)[C@H](C)[C@H]12 (single isomer, unassigned) [Example 478] | 8 (≈ 14.5 µM) | 8 (≈ 14.5 µM) | 1 (≈ 1.81 µM) | 0.125 (≈ 0.227 µM) |  |  |  |  |
| C[C@@H](NC(=O)Cn1cnnn1)[C@H]1C(=O)N2C(C(=O)O)=C(S[C@@H]3CN[C@H](C(=O)N4CC(N)C(F)C4)C3)[C@H](C)[C@H]12 (single isomer, unassigned) [Example 479] |  |  |  |  | 8 (≈ 14.5 µM) | 16 (≈ 29 µM) | 2 (≈ 3.63 µM) | 0.25 (≈ 0.453 µM) |
| C[C@@H](NC(=O)Cn1cnnn1)[C@H]1C(=O)N2C(C(=O)O)=C(S[C@@H]3CN[C@H](C(=O)N4CCC5NCCCC5C4)C3)[C@H](C)[C@H]12 (single isomer, unassigned) [Example 482] | 4 (≈ 6.81 µM) | 4 (≈ 6.81 µM) | 4 (≈ 6.81 µM) | 0.25 (≈ 0.425 µM) |  |  |  |  |
| C[C@@H](NC(=O)Cn1cnnn1)[C@H]1C(=O)N2C(C(=O)O)=C(S[C@@H]3CN[C@H](C(=O)N4CCOC(CN)C4)C3)[C@H](C)[C@H]12 (stereo in doubt) [Example 461, (4R,5S,6R)-6-((R)-1-(2-(1H-tetrazol-1-yl)acetamido)ethyl)-3-((3S,5S)-5-((S)-2-(aminomethyl)morpholine-4-carbonyl)pyrrolidin-3-ylthio)-4-methyl-7-oxo-1-azabicyclo[3.2.0]hept-2-ene-2-carboxylic acid] |  |  |  |  | 4 (≈ 7.1 µM) |  | 2 (≈ 3.55 µM) | 0.5 (≈ 0.887 µM) |
| C[C@@H](NS(C)(=O)=O)[C@H]1C(=O)N2C(C(=O)O)=C(S[C@@H]3CN[C@H](C(=O)N(C)C)C3)[C@H](C)[C@H]12 [Example 1, (4R,5S,6S)-3-((3S,5S)-5-(Dimethylcarbamoyl)pyrrolidin-3-ylthio)-4-methyl-6-((R)-1-(methylsulfonamido)ethyl)-7-oxo-1-azabicyclo[3.2.0]hept-2-ene-2-carboxylic acid] | 8 to 16 (≈ 17.4 to 34.7 µM) | 32 to 64 (≈ 69.5 to 139 µM) |  | 0.25 to 1 (≈ 0.543 to 2.17 µM) |  |  |  |  |

The next lines start with the values.

| MIC [1, 5] [µg/mL] | MIC [2, 6] [µg/mL] | MIC [3, 7] [µg/mL] | MIC [4, 8] [µg/mL] | MIC [1] [µg/mL] | MIC [2, 9] [µg/mL] | MIC [3, 10] [µg/mL] | MIC ([4]; ESBL −ve E. coli ATCC25922) [µg/mL] | Structure (SMILES) |
| --- | --- | --- | --- | --- | --- | --- | --- | --- |
| 4 (≈ 6.97 µM) |  | 1 (≈ 1.74 µM) | 0.25 (≈ 0.436 µM) |  | 2 (≈ 3.49 µM) |  |  | C[C@@H](NC(=O)Cn1cnnn1)[C@H]1C(=O)N2C(C(=O)O)=C(S[C@@H]3CN[C@H](C(=O)N4CCC5(CCNC5)C4)C3)[C@H](C)[C@H]12 (single isomer, unassigned) [Example 488] |
| 32 (≈ 59.8 µM) | 32 (≈ 59.8 µM) | 2 (≈ 3.74 µM) | 2 (≈ 3.74 µM) |  |  |  |  | CNCC(=O)N[C@H](C)[C@H]1C(=O)N2C(C(=O)O)=C(S[C@@H]3CN[C@H](C(=O)N4CCC5CNCCC54)C3)[C@H](C)[C@H]12 (single isomer, unassigned) [Example 490] |
|  |  |  |  | 2 (≈ 3.49 µM) | 0.5 (≈ 0.872 µM) | 1 (≈ 1.74 µM) | 0.125 (≈ 0.218 µM) | C[C@@H](NC(=O)Cn1cnnn1)[C@H]1C(=O)N2C(C(=O)O)=C(S[C@@H]3CN[C@H](C(=O)N4CCC5(CCNC5)C4)C3)[C@H](C)[C@H]12 (single isomer, unassigned) [Example 493] |
| 2 (≈ 3.55 µM) | 2 (≈ 3.55 µM) | 2 (≈ 3.55 µM) | 0.25 (≈ 0.444 µM) |  |  |  |  | C[C@@H](NC(=O)Cn1cnnn1)[C@H]1C(=O)N2C(C(=O)O)=C(S[C@@H]3CN[C@H](C(=O)N4CCC(N)(CO)C4)C3)[C@H](C)[C@H]12 (single isomer, unassigned) [Example 496] |
|  |  |  |  | 4 (≈ 7.1 µM) | 4 (≈ 7.1 µM) | 2 (≈ 3.55 µM) | 0.25 (≈ 0.444 µM) | C[C@@H](NC(=O)Cn1cnnn1)[C@H]1C(=O)N2C(C(=O)O)=C(S[C@@H]3CN[C@H](C(=O)N4CCC(N)(CO)C4)C3)[C@H](C)[C@H]12 (single isomer, unassigned) [Example 497] |
|  |  |  |  | 2 (≈ 3.4 µM) | 32 (≈ 54.4 µM) | 4 (≈ 6.81 µM) | 0.5 (≈ 0.851 µM) | C[C@@H](NC(=O)Cn1cnnn1)[C@H]1C(=O)N2C(C(=O)O)=C(S[C@@H]3CN[C@H](C(=O)N4CCCC45CCCNC5)C3)[C@H](C)[C@H]12 (single isomer, unassigned) [Example 504] |
| 4 (≈ 7.1 µM) | 1 (≈ 1.77 µM) | 4 (≈ 7.1 µM) | 0.25 (≈ 0.444 µM) |  |  |  |  | C[C@@H](NC(=O)Cn1cnnn1)[C@H]1C(=O)N2C(C(=O)O)=C(S[C@@H]3CN[C@H](C(=O)N4CC(O)C(CN)C4)C3)[C@H](C)[C@H]12 (single isomer, unassigned) [Example 510] |
|  |  |  |  | 4 (≈ 6.78 µM) |  | 2 (≈ 3.39 µM) | 0.25 (≈ 0.424 µM) | C[C@@H](NC(=O)Cn1cnnn1)[C@H]1C(=O)N2C(C(=O)O)=C(S[C@@H]3CN[C@H](C(=O)N4CC5CC(CO)NC5C4)C3)[C@H](C)[C@H]12 (single isomer, unassigned) [Example 552] |

Reference: patent publication US11180504B2 (ORCHID PHARMA LTD., priority 2016, dated 2021)
